± gives the expanded uncertainty stated by the source.
Conditions: Liquid; for mass density: 101.33 kPa

mass density (298.15 K) [kg/m3] | vapor or sublimation pressure (298.15 K) [kPa] | mass density (313.15 K) [kg/m3] | vapor or sublimation pressure (313.15 K) [kPa] | mass density (328.15 K) [kg/m3] | vapor or sublimation pressure (328.15 K) [kPa] | SMILES
1058.62 ± 0.85 | 13.54 ± 0.18 | 1039.88 ± 0.76 | 26.83 ± 0.29 | 1020.86 ± 0.67 | 49.01 ± 0.47 | C1COCO1 [1,3-dioxolane]
1027.87 ± 0.71 | 4.9 ± 0.12 | 1010.69 ± 0.63 | 10.17 ± 0.16 | 993.75 ± 0.6 | 19.54 ± 0.23 | C1COCCO1 [1,4-dioxane]
877 ± 1 | 4.055 ± 0.11 | 861.52 ± 1.1 | 8.45 ± 0.14 | 846.33 ± 1.1 | 16.4 ± 0.21 | CCCCCCl [1-chloropentane]
881.95 ± 0.45 | 21.61 ± 0.25 | 865.36 ± 0.49 | 40.62 ± 0.4 | 848.68 ± 0.52 | 70.61 ± 0.63 | C1CCOC1 [tetrahydrofuran]
878.81 ± 1 | 9.56 ± 0.15 | 863.67 ± 1.1 | 18.66 ± 0.23 | 848.29 ± 1.1 | 33.95 ± 0.35 | C1CCOCC1 [tetrahydropyran]
